Data taken from patent US20220119354A1, “DIAMINO-SUBSTITUTED PYRIDINES AND PYRIMIDINES AS HERBICIDES” (FMC Corporation, priority 2019, published 2022).

What was measured:
Format in all cases: in vivo
[1] = tested on: ragweed (common ragweed, Ambrosia elatior); assay: Test A preemergence, ragweed; conditions: 0 to 100 scale; for Ragweed plant response rating: 0 is no effect, 100 is complete control
Method in brief: (§1)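 Visual injury scored against untreated controls about 10 d after treatment, scale 0 = no effect to 100 = complete control. Compounds, formulated with surfactant in a non-phytotoxic solvent, went on as directed soil spray preemergence or onto 2–10 cm, one- to two-leaf plants postemergence; loam–sand soil, greenhouse.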

[2] = tested on: ducksalad (Heteranthera limosa); assay: Test B flooded paddy test, ducksalad; conditions: Flood, 250 g ai/ha, applied to paddy water, 2-leaf stage, visual evaluation after 13 to 15 d
Method in brief: (§2)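 Visual injury scores run from 0 (no effect) to 100 (complete control), assigned by comparison with controls 13 to 15 d after treatment. Treatment went into floodwater standing 3 cm over the soil of pots holding 2-leaf plants.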

[3] = tested on: galium (catchweed bedstraw, Galium aparine); assay: Test A postemergence, galium; conditions: 0 to 100 scale
Method in brief: as §1

[4] = tested on: ragweed (common ragweed, Ambrosia elatior); assay: Test A postemergence, ragweed; conditions: 0 to 100 scale
Method in brief: as §1

kochia (Kochia scoparia) [5] = assay: Test A postemergence, kochia; conditions: 0 to 100 scale
Method in brief: as §1

[6] = tested on: wheat (Triticum aestivum); assay: Test A postemergence, wheat; conditions: 0 to 100 scale
Method in brief: as §1

[7] = tested on: ryegrass, Italian (Lolium multiflorum); assay: Test A preemergence, Italian ryegrass; conditions: 0 to 100 scale; for Ryegrass, Italian plant response rating: 0 is no effect, 100 is complete control
Method in brief: as §1

rice (Oryza sativa) = assay: Test B flooded paddy test, rice; conditions: Flood, 250 g ai/ha, applied to paddy water, 2-leaf stage, visual evaluation after 13 to 15 d
Method in brief: as §2

[8] = tested on: pigweed (Amaranthus retroflexus); assay: Test A postemergence, pigweed; conditions: 0 to 100 scale
Method in brief: as §1

[9] = tested on: sedge, umbrella (small-flower umbrella sedge, Cyperus difformis); assay: Test B flooded paddy test, umbrella sedge; conditions: Flood, 250 g ai/ha, applied to paddy water, 2-leaf stage, visual evaluation after 13 to 15 d
Method in brief: as §2

[10] = tested on: foxtail, giant (Setaria faberii); assay: Test A postemergence, giant foxtail; conditions: 0 to 100 scale
Method in brief: as §1

[11] = tested on: barnyardgrass (Echinochloa crus-galli); assay: Test A preemergence, barnyardgrass; conditions: 0 to 100 scale; for Barnyardgrass plant response rating: 0 is no effect, 100 is complete control
Method in brief: as §1

[12] = tested on: barnyardgrass (Echinochloa crus-galli); assay: Test B flooded paddy test, barnyardgrass; conditions: Flood, 250 g ai/ha, applied to paddy water, 2-leaf stage, visual evaluation after 13 to 15 d
Method in brief: as §2

[13] = tested on: foxtail, giant (Setaria faberii); assay: Test A preemergence, giant foxtail; conditions: 0 to 100 scale; for Foxtail, Giant plant response rating: 0 is no effect, 100 is complete control
Method in brief: as §1

[14] = tested on: blackgrass (Alopecurus myosuroides); assay: Test A postemergence, blackgrass; conditions: 0 to 100 scale
Method in brief: as §1

[15] = tested on: pigweed (Amaranthus retroflexus); assay: Test A preemergence, pigweed; conditions: 0 to 100 scale; for Pigweed plant response rating: 0 is no effect, 100 is complete control
Method in brief: as §1

[16] = tested on: barnyardgrass (Echinochloa crus-galli); assay: Test A postemergence, barnyardgrass; conditions: 0 to 100 scale
Method in brief: as §1

kochia (Kochia scoparia) [17] = assay: Test A preemergence, kochia; conditions: 0 to 100 scale; for Kochia plant response rating: 0 is no effect, 100 is complete control
Method in brief: as §1

[18] = tested on: ryegrass, Italian (Lolium multiflorum); assay: Test A postemergence, Italian ryegrass; conditions: 0 to 100 scale
Method in brief: as §1

corn (Zea mays) = assay: Test A postemergence, corn; conditions: 0 to 100 scale
Method in brief: as §1

[19] = 125 g ai/ha, 0 no effect, 100 complete control
[20] = 500 g ai/ha, 0 no effect, 100 complete control

CC(=O)c1cnc(NC(C)c2cc3ccccc3s2)nc1N (stereo not drawn) [Compound 57]
50: Ryegrass, Italian plant response rating ([7]; 500 g ai/ha) | Plant response rating, Foxtail, Giant [10, 20]
90: Foxtail, Giant plant response rating ([13]; 500 g ai/ha)
10: Plant response rating, Blackgrass [14, 20]
30: Plant response rating, Ducksalad (0 to 100 scale, 0 is no effect, 100 is complete control) [2] | Foxtail, Giant plant response rating ([13]; 125 g ai/ha) | Pigweed plant response rating ([15]; 125 g ai/ha)
80: Plant response rating, Galium [3, 20] | Plant response rating, Pigweed [8, 20] | Plant response rating, Sedge, Umbrella (0 to 100 scale, 0 is no effect, 100 is complete control) [9]
20: Plant response rating, Wheat [6, 20] | Ryegrass, Italian plant response rating ([7]; 125 g ai/ha) | Plant response rating, Corn (corn (Zea mays); [20])
70: Plant response rating, Ragweed [4, 20] | Barnyardgrass plant response rating ([11]; 500 g ai/ha) | Plant response rating, Barnyardgrass [16, 20]
60: Ragweed plant response rating ([1]; 125 g ai/ha) | Plant response rating, Galium [3, 19] | Plant response rating, Kochia (kochia (Kochia scoparia) [5]; [20]) | Plant response rating, Pigweed [8, 19] | Kochia plant response rating (kochia (Kochia scoparia) [17]; 500 g ai/ha) | Plant response rating, Ryegrass, Italian [18, 20]
40: Plant response rating, Ragweed [4, 19]
100: Ragweed plant response rating ([1]; 500 g ai/ha) | Pigweed plant response rating ([15]; 500 g ai/ha)
0: Plant response rating, Kochia (kochia (Kochia scoparia) [5]; [19]) | Plant response rating, Wheat [6, 19] | Plant response rating, Rice (0 to 100 scale, 0 is no effect, 100 is complete control) (rice (Oryza sativa)) | Plant response rating, Foxtail, Giant [10, 19] | Barnyardgrass plant response rating ([11]; 125 g ai/ha) | Plant response rating, Barnyardgrass (0 to 100 scale, 0 is no effect, 100 is complete control) [12] | Plant response rating, Blackgrass [14, 19] | Plant response rating, Barnyardgrass [16, 19] | Kochia plant response rating (kochia (Kochia scoparia) [17]; 125 g ai/ha) | Plant response rating, Ryegrass, Italian [18, 19] | Plant response rating, Corn (corn (Zea mays); [19])

CC[C@H](Nc1ncc(C(F)(F)F)c(N)n1)c1cc2ccc(F)cc2o1 [Compound 64]
30: Plant response rating, Galium [3, 20] | Plant response rating, Kochia (kochia (Kochia scoparia) [5]; [20])
0: Ragweed plant response rating ([1]; 125 g ai/ha) | Ragweed plant response rating ([1]; 500 g ai/ha) | Plant response rating, Ducksalad (0 to 100 scale, 0 is no effect, 100 is complete control) [2] | Plant response rating, Galium [3, 19] | Plant response rating, Ragweed [4, 19] | Plant response rating, Kochia (kochia (Kochia scoparia) [5]; [19]) | Plant response rating, Wheat [6, 19] | Plant response rating, Wheat [6, 20] | Ryegrass, Italian plant response rating ([7]; 125 g ai/ha) | Ryegrass, Italian plant response rating ([7]; 500 g ai/ha) | Plant response rating, Rice (0 to 100 scale, 0 is no effect, 100 is complete control) (rice (Oryza sativa)) | Plant response rating, Sedge, Umbrella (0 to 100 scale, 0 is no effect, 100 is complete control) [9] | Plant response rating, Foxtail, Giant [10, 19] | Plant response rating, Foxtail, Giant [10, 20] | Barnyardgrass plant response rating ([11]; 125 g ai/ha) | Barnyardgrass plant response rating ([11]; 500 g ai/ha) | Plant response rating, Barnyardgrass (0 to 100 scale, 0 is no effect, 100 is complete control) [12] | Foxtail, Giant plant response rating ([13]; 125 g ai/ha) | Foxtail, Giant plant response rating ([13]; 500 g ai/ha) | Plant response rating, Blackgrass [14, 19] | Plant response rating, Blackgrass [14, 20] | Pigweed plant response rating ([15]; 125 g ai/ha) | Pigweed plant response rating ([15]; 500 g ai/ha) | Plant response rating, Barnyardgrass [16, 19] | Kochia plant response rating (kochia (Kochia scoparia) [17]; 125 g ai/ha) | Kochia plant response rating (kochia (Kochia scoparia) [17]; 500 g ai/ha) | Plant response rating, Ryegrass, Italian [18, 19] | Plant response rating, Ryegrass, Italian [18, 20] | Plant response rating, Corn (corn (Zea mays); [19]) | Plant response rating, Corn (corn (Zea mays); [20])
60: Plant response rating, Pigweed [8, 20]
20: Plant response rating, Ragweed [4, 20] | Plant response rating, Pigweed [8, 19] | Plant response rating, Barnyardgrass [16, 20]

Cc1ccc2oc([C@@H](C)Nc3ncc(C(F)(F)F)c(N)n3)cc2c1 [Compound 10]
30: Plant response rating, Barnyardgrass ([11]; 500 g ai/ha)
40: Plant response rating, Foxtail, Giant ([10]; 500 g ai/ha)
20: Plant response rating, Ragweed ([4]; 125 g ai/ha) | Plant response rating, Ryegrass, Italian ([7]; 500 g ai/ha) | Plant response rating, Barnyardgrass ([11]; 125 g ai/ha) | Plant response rating, Blackgrass ([14]; 500 g ai/ha) | Plant response rating, Barnyardgrass ([16]; 500 g ai/ha)
50: Plant response rating, Ragweed ([1]; 500 g ai/ha) | Plant response rating, Galium ([3]; 125 g ai/ha)
60: Plant response rating, Foxtail, Giant ([13]; 500 g ai/ha) | Plant response rating, Pigweed ([15]; 500 g ai/ha)
0: Plant response rating, Ragweed ([1]; 125 g ai/ha) | Plant response rating, Ducksalad (0 to 100 scale, 0 is no effect, 100 is complete control) [2] | Plant response rating, Kochia (kochia (Kochia scoparia) [5]; 125 g ai/ha) | Plant response rating, Kochia (kochia (Kochia scoparia) [5]; 500 g ai/ha) | Plant response rating, Wheat ([6]; 125 g ai/ha) | Plant response rating, Wheat ([6]; 500 g ai/ha) | Plant response rating, Ryegrass, Italian ([7]; 125 g ai/ha) | Plant response rating, Rice (0 to 100 scale, 0 is no effect, 100 is complete control) (rice (Oryza sativa)) | Plant response rating, Sedge, Umbrella (0 to 100 scale, 0 is no effect, 100 is complete control) [9] | Plant response rating, Foxtail, Giant ([10]; 125 g ai/ha) | Plant response rating, Barnyardgrass (0 to 100 scale, 0 is no effect, 100 is complete control) [12] | Plant response rating, Foxtail, Giant ([13]; 125 g ai/ha) | Plant response rating, Blackgrass ([14]; 125 g ai/ha) | Plant response rating, Pigweed ([15]; 125 g ai/ha) | Plant response rating, Barnyardgrass ([16]; 125 g ai/ha) | Plant response rating, Kochia (kochia (Kochia scoparia) [17]; 125 g ai/ha) | Plant response rating, Kochia (kochia (Kochia scoparia) [17]; 500 g ai/ha) | Plant response rating, Ryegrass, Italian ([18]; 125 g ai/ha) | Plant response rating, Ryegrass, Italian ([18]; 500 g ai/ha) | Plant response rating, Corn (corn (Zea mays); 125 g ai/ha) | Plant response rating, Corn (corn (Zea mays); 500 g ai/ha)
80: Plant response rating, Ragweed ([4]; 500 g ai/ha) | Plant response rating, Pigweed ([8]; 125 g ai/ha)
70: Plant response rating, Galium ([3]; 500 g ai/ha)
90: Plant response rating, Pigweed ([8]; 500 g ai/ha)

Cc1nc(NC(C)c2coc3ccccc23)nc(N)c1C(F)(F)F (stereo not drawn) [Compound 106]
20: Plant response rating, Ragweed [4, 19]
100: Ragweed plant response rating ([1]; 500 g ai/ha) | Plant response rating, Ragweed [4, 20] | Plant response rating, Pigweed [8, 20] | Pigweed plant response rating ([15]; 500 g ai/ha)
60: Ragweed plant response rating ([1]; 125 g ai/ha)
30: Ryegrass, Italian plant response rating ([7]; 500 g ai/ha) | Pigweed plant response rating ([15]; 125 g ai/ha) | Plant response rating, Barnyardgrass [16, 20]
0: Plant response rating, Ducksalad (0 to 100 scale, 0 is no effect, 100 is complete control) [2] | Plant response rating, Wheat [6, 19] | Plant response rating, Wheat [6, 20] | Ryegrass, Italian plant response rating ([7]; 125 g ai/ha) | Plant response rating, Rice (0 to 100 scale, 0 is no effect, 100 is complete control) (rice (Oryza sativa)) | Plant response rating, Sedge, Umbrella (0 to 100 scale, 0 is no effect, 100 is complete control) [9] | Plant response rating, Foxtail, Giant [10, 19] | Plant response rating, Foxtail, Giant [10, 20] | Barnyardgrass plant response rating ([11]; 125 g ai/ha) | Barnyardgrass plant response rating ([11]; 500 g ai/ha) | Plant response rating, Barnyardgrass (0 to 100 scale, 0 is no effect, 100 is complete control) [12] | Foxtail, Giant plant response rating ([13]; 125 g ai/ha) | Plant response rating, Blackgrass [14, 19] | Plant response rating, Blackgrass [14, 20] | Plant response rating, Barnyardgrass [16, 19] | Plant response rating, Ryegrass, Italian [18, 19] | Plant response rating, Ryegrass, Italian [18, 20] | Plant response rating, Corn (corn (Zea mays); [19]) | Plant response rating, Corn (corn (Zea mays); [20])
70: Plant response rating, Galium [3, 19] | Plant response rating, Pigweed [8, 19]
50: Foxtail, Giant plant response rating ([13]; 500 g ai/ha)
90: Plant response rating, Kochia (kochia (Kochia scoparia) [5]; [20]) | Kochia plant response rating (kochia (Kochia scoparia) [17]; 500 g ai/ha)
80: Plant response rating, Galium [3, 20] | Plant response rating, Kochia (kochia (Kochia scoparia) [5]; [19]) | Kochia plant response rating (kochia (Kochia scoparia) [17]; 125 g ai/ha)
